Measured values from paper PMC4119572 (Clinical cancer research : an official journal of the …, 2014).

How the values were obtained:
Type in all cases: cell-based
mouse Oct1 = molecular target: T1, mouse Oct1 (Mus musculus, UniProt O08966); assay: TEA and ASP+ uptake inhibition in mOct1-transfected HEK293 cells
T1 sequence (O08966 1-556): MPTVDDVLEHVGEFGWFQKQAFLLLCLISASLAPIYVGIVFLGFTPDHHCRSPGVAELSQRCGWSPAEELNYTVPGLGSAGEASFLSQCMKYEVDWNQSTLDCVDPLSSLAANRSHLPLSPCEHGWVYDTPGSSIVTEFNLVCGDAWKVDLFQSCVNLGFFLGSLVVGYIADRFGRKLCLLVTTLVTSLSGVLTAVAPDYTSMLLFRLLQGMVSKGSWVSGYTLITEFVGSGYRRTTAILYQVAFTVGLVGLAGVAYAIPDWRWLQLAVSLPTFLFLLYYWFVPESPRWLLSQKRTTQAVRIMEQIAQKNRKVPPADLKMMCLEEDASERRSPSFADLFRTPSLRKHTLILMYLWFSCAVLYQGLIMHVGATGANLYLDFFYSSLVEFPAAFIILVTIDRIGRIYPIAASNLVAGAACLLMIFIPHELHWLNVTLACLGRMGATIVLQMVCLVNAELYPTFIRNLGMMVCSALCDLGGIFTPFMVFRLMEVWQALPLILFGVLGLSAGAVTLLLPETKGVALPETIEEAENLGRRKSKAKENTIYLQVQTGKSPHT

OCT2 [1] = molecular target: T2, OCT2 (Homo sapiens, UniProt O15244); assay: […]TEA uptake inhibition in OCT2-transfected HEK293 cells, Dixon plot
T2 sequence (O15244 1-555): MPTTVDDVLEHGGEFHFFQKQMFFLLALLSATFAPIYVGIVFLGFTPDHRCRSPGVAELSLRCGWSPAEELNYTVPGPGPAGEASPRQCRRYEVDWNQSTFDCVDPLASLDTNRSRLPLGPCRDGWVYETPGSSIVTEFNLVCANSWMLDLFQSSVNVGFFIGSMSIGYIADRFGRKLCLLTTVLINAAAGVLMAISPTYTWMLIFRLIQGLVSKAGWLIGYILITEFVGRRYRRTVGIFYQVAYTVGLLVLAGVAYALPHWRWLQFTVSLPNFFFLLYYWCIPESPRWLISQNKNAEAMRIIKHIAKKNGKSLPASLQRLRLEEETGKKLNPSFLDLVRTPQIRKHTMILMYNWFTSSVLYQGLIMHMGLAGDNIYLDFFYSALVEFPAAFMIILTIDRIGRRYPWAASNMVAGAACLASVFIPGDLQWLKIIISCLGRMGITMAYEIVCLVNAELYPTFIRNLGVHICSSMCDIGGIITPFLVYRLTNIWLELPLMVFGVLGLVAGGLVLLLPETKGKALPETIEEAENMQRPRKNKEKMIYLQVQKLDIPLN

mouse Oct2 = molecular target: T3, mouse Oct2 (Mus musculus, UniProt O70577); assay: TEA and ASP+ uptake inhibition in mOct2-transfected HEK293 cells
T3 sequence (O70577 1-553): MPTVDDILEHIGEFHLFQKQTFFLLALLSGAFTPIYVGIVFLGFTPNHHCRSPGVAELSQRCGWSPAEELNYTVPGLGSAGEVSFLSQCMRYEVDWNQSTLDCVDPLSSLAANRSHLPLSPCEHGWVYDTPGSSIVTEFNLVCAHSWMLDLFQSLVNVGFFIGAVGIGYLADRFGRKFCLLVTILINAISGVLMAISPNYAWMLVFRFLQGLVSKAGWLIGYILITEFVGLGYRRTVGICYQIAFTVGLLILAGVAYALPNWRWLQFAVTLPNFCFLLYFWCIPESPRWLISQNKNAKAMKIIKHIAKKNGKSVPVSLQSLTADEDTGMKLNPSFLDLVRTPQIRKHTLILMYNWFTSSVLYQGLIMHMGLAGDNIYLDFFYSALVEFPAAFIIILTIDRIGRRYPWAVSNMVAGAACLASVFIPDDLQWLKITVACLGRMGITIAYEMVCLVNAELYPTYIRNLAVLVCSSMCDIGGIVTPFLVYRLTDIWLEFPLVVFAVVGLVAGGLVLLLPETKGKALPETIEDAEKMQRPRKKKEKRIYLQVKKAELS

OCT2 [2] = molecular target: T2, OCT2; assay: […]TEA uptake in OCT2-transfected HEK293 cells

Row | Ki (OCT2 [1]) [µM] | Compound | TEA and ASP+ uptake inhibition in mOct1-transfected HEK293 cells (mouse Oct1) | TEA and ASP+ uptake inhibition in mOct2-transfected HEK293 cells (mouse Oct2) | [14C]TEA uptake in OCT2-transfected HEK293 cells (OCT2 [2])
1 | 3.04 | Cc1ccc(C(=O)Cn2c3c(sc2=N)CCCC3)cc1 [pifithrin-α] | pifithrin-α reduced uptake of TEA in Oct1 and Oct2 overexpressing HEK293 cells (Fig. 5A) | pifithrin-α reduced uptake of TEA in Oct1 and Oct2 overexpressing HEK293 cells (Fig. 5A) | 
2 |  | CC[N+](CC)(CC)CC [tetraethylammonium] |  |  | kinetic analyses were performed with and without pifithrin-α using varying concentrations of TEA as the OCT2 substrate
